Patent US10851152B2, “Polymerized peptide and gel having collagen-like structure” (WASEDA UNIVERSITY, priority 2015, dated 2020)
Non-standard residues stand in square brackets, D forms with d. No end group written: not given here. Hyp = O=C(O)[C@@H]1C[C@@H](O)CN1

Columns and labels:
HDF = test: Cell adhesion assay on coated 96-well plate, HDF; assay type: cell-based, Human; conditions: 37° C., 5% CO2, 60 min
Description: (§1) D-MEM High Glucose, D-MEM Low Glucose and 0.5% trypsin/EDTA were purchased from Wako Pure Chemical Industries, Ltd. (Osaka); FBS, penicillin. streptomycin (100×) were purchased from Invitrogen (Thermo Fisher Scientific corporation). Human mammary gland cancer (MDA-MB-231) was purchased from ATCC; Human skin fibroblasts (HDF) were purchased from Cell Applications. MDA-MB-231 was cultured using DMEM High Glucose (10% FBS, 100 Units/ml penicillin, 100 μg/ml streptomycin), and then maintained; and HDF was cultured using DMEM Low Glucose (10% FBS, 100 Units/ml penicillin, 100 μg/ml streptomycin), and then maintained. When used in cell adhesion assay and Western blotting, the cells were treated with 0.05% trypsin/EDTA, and then collected in a 15 ml tube to be subjected to centrifugal treatment at 1,200 rpm for four minutes. After the removal of the supernatant, the cells were suspended with an incubation medium by which the cells were incubated at 37° C. for 20 to 30 min and then recovered. Such cell suspension was used for cell adhesion assay and Western blotting.
(§2) Type I collagen (KOKEN CO., LTD, Tokyo) and BSA (Jackson Immuno Research Laboratories Inc., USA), in an aqueous solution as 30 μg/ml, were added to a 96-well plate (Nunc MicroWell 96-Well Microplates) by an amount of 50 μl/well, followed by drying the sample for two nights. Collagen-like peptides having no Cys residue were prepared as aqueous solutions of 1 to 3 mg/ml, and then heated at 95° C. for 5 min, followed by storing them at 4° C. overnight to form the triple-helical structure. Then, they were diluted to 30 μg/ml, and then added to a 96-well plate in an amount of 50 μl/well followed by drying them for two nights. Collagen-like peptides having Cys residues were dissolved in a degassed 0.05% (v/v) TFA aqueous solution, followed by preparing to a concentration of 300 μg/ml, and then heating the sample at 80° C. for 5 min. […] Further, a mineral oil was layered on the peptide solution, and such peptide solution was then oxidized at room temperature until thiol could no longer be detected by Ellman's test. […]

[1] = CD spectrum measurement of triple-helical structure and its thermal stability; assay type: physicochemical; conditions: 1 mg/ml in 0.05% TFA/H2O; measured at 4° C., 37° C. and 80° C.
Description: The structure of the peptide was confirmed by CD spectrum (circular dichroism spectrometer J-820, JASCO Corporation). A peptide powder was dissolved in a degassed 0.05% TFA/H2O to prepare a solution of 1 mg/ml. After heating at 80° C. for 5 min, the solution was left to stand at 4° C. overnight to cause refolding as a measurement sample. CD spectrum was measured under the conditions of: temperature 4° C., 37° C., 80° C.; cell length 0.05 cm; sensitivity standard (100 mdeg); measurement wavelength 250 to 190 nm; data collection interval 0.2 nm; scanning speed 50 nm/min; response 0.5 sec; band width 1 nm; cumulated number 4. A signal obtained (θobs) was expressed as a residue average molar ellipticity (θmrw). θmrw was calculated by the following formula.
A thermal stability of the triple-helical structure was observed by monitoring θmrw, 225 associated with a change in temperature. The measurement conditions were: 4 to 75° C. or 4 to 90° C.; cell length 0.05 cm; measurement wavelength 225 nm; data collection interval 0.5° C.; temperature gradient 18° C./h; sensitivity standard (100 mdeg); response 2 sec; band width 1 nm. It was determined that the triple-helical structure completely turned into a random coil structure in a region where the signal was linearly diminishing.

[2] = Remaining thiol group (Ellman's reagent) in oxidative polymerization reaction; assay type: physicochemical; conditions: SH amount at 0 hour being 100%; 10% DMSO, peptide 1% (w/v); 74 hours
Description: Degassed water was used to prepare a peptide solution having a concentration of 1.11% (w/v), and the solution was then put into a PCR tube. After heating this solution at 80° C. for 5 min, it was then left to sand still at 4° C. overnight. By adding DMSO to this solution, there was prepared a peptide solution having a final concentration of 10% DMSO, peptide 1% (w/v). The PCR tube was then filled with a mineral oil in a way such that the mineral oil covered the surface of the solution. In every measurement, the mineral oil was eliminated from the peptide solution to prepare a peptide solution for oxidation monitoring. Ellman's reagent was prepared in a way such that 9 mg/ml of DTNB was present in 50 mM of a phosphate buffer solution (pH 8.4). 33 mM phosphate buffer solution (pH 8.4) and Ellman's reagent 1.5 mg/ml were left to stand for […], then a light absorbance was then measured after a solution with a final concentration of peptide 0.167 mg/ml. Recorded were changes in absorbance with time, with a moment when DMSO was added being a starting point (0 hour). Since the Ellman's reagent generates 5-mercapto-2-nitrobenzoate (λ max=412 nm, ε=1.55×10^4) depending on the amount of thiol groups (referred to as “SH groups” hereunder) in the peptide, measured was a absorbance at 412 nm. After the measurement, optical path length was compensated by measuring absorbance at 997 nm and 900 nm.

[3] = Hydrogel formation judged by holding of a stainless ball; assay type: physicochemical; conditions: 1% (w/v) peptide, 10% DMSO, room temperature, up to three days
Description: Degassed water was used to prepare a peptide solution having a concentration of 1.11% (w/v) or 1.66% (w/v), and the solution was then put into a PCR tube. After heating this solution at 80° C. for 5 min using a polymerase chain reaction (PCR) machine (TaKaRa PCR Thermal Cycler, TAKARA BIO INC.), the solution was then left to stand at 4° C. overnight. By adding DMSO and water to this solution, there was prepared a peptide solution having a concentration of 10% DMSO, 0.1 to 1.5% (w/v). The PCR tube was then filled with a mineral oil in a way such that the mineral oil covered the liquid surface, followed by allowing the solution to stand at room temperature for a given period of time to achieve a gel. Then, gel formation was determined by looking at whether a stainless ball could be held by the gel.

MDA-MB-231 = test: Cell adhesion assay on coated 96-well plate, MDA-MB-231; assay type: cell-based, Human; conditions: coated 96-well plate
Description: as §1, §2

| Substance | cell adhesion of HDF (HDF) | cell adhesion of MDA-MB-231 (MDA-MB-231) | other results |
| --- | --- | --- | --- |
| G(POG)4PRGQOGVMGFOG(POG)4-NH2 [Soluble GVMGFO] | cellular adhesion was not observed |  |  |
| G(POG)7IKGHRGFSGLOG(POG)6-NH2 [Soluble KGHRGF] | cellular adhesion was not observed |  |  |
| YCCGPPOGGOPOGPPOGGOPOGRPOGPPOGGOPOGCCY (YCCGPP[Hyp]GG[Hyp]P[Hyp]GPP[Hyp]GG[Hyp]P[Hyp]GRP[Hyp]GPP[Hyp]GG[Hyp]P[Hyp]GCCY; not fully specified; cysteine pairing not given here) [YCC2-Scr] |  |  | formation of triple-helical structure (CD spectrum, positive Cotton effect at about 225 nm) [1]: did not form the triple-helical structure; ratio of SH amount [2]: approximately 0%; gel-forming capability [3]: did not turn into a gel |
| Ac-G(POG)4FOGERG(POG)5-NH2 (GPPGPPGPPGPPGFPGERGPPGPPGPPGPPGPPG; HELM PEPTIDE1{[ac].G.P.[Hyp].G.P.[Hyp].G.P.[Hyp].G.P.[Hyp].G.F.[Hyp].G.E.R.G.P.[Hyp].G.P.[Hyp].G.P.[Hyp].G.P.[Hyp].G.P.[Hyp].G.[am]}$$$$V2.0; SMILES CC(=O)NCC(=O)N1CCC[C@H]1C(=O)N1C[C@H](O)C[C@H]1C(=O)NCC(=O)N1CCC[C@H]1C(=O)N1C[C@H](O)C[C@H]1C(=O)NCC(=O)N1CCC[C@H]1C(=O)N1C[C@H](O)C[C@H]1C(=O)NCC(=O)N1CCC[C@H]1C(=O)N1C[C@H](O)C[C@H]1C(=O)NCC(=O)N[C@@H](Cc1ccccc1)C(=O)N1C[C@H](O)C[C@H]1C(=O)NCC(=O)N[C@@H](CCC(=O)O)C(=O)N[C@@H](CCCNC(=N)N)C(=O)NCC(=O)N1CCC[C@H]1C(=O)N1C[C@H](O)C[C@H]1C(=O)NCC(=O)N1CCC[C@H]1C(=O)N1C[C@H](O)C[C@H]1C(=O)NCC(=O)N1CCC[C@H]1C(=O)N1C[C@H](O)C[C@H]1C(=O)NCC(=O)N1CCC[C@H]1C(=O)N1C[C@H](O)C[C@H]1C(=O)NCC(=O)N1CCC[C@H]1C(=O)N1C[C@H](O)C[C@H]1C(=O)NCC(N)=O) [Soluble GFOGER] | cellular adhesion was not observed | cell adhesion was not observed |  |
| gelatin |  | Significant cell adhesion was observed |  |
